Test results from ChEMBL document CHEMBL1909046, “DrugMatrix in vitro pharmacology data”.

Legend:
B2 bradykinin receptor = target: T1, B2 bradykinin receptor (Homo sapiens, UniProt P30411); assay type: cell membranes, Membrane; conditions: chem-1; further: in other assays of this panel Not Active means under 50% inhibition at 10 µM
T1 sequence (P30411 whole entry): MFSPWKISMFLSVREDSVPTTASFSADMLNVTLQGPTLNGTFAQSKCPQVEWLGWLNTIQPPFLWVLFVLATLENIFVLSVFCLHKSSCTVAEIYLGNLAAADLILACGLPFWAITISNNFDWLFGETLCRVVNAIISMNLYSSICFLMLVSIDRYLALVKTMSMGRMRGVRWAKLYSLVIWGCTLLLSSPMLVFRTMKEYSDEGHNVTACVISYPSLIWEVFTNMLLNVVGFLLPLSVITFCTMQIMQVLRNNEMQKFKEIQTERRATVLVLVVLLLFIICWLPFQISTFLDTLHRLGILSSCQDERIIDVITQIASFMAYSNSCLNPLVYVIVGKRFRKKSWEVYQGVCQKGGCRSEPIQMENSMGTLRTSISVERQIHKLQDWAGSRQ

[1] = DRUGMATRIX: Sigma2 radioligand binding (ligand: [3H] Ifenprodil); assay type: cell membranes, Rattus norvegicus, Wistar, Brain, Membrane; conditions: Not Active = under 50% inhibition at 10 µM
Carbonic anhydrase 2 = Carbonic anhydrase 2 (Homo sapiens, UniProt P00918); assay: DRUGMATRIX: Carbonic Anhydrase II enzyme inhibition (substrate: 4-Nitrophenyl acetate (4-NPA)); assay type: tissue-based, Erythrocyte; conditions: erythrocyte; Not Active = under 50% inhibition at 10 µM
[2] = target: Prostaglandin G/H synthase 1 (Homo sapiens, UniProt P23219); assay: biochemical; assay type: tissue-based, Platelet; conditions: platelet;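 further: inhibition of COX-1 enzyme activity, with arachidonic acid supplied as substrate; in other assays of this panel Not Active means under 50% inhibition at 10 µM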
[3] = target: T2, 3-hydroxy-3-methylglutaryl-coenzyme A reductase (Homo sapiens, UniProt P04035); parameters: species or system Escherichia coli;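 further: enzyme inhibition assay of HMG-CoA reductase using radiolabeled [14C]HMG-CoA as substrate; in other assays of this panel Not Active means under 50% inhibition at 10 µM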
T2 sequence (P04035 whole entry): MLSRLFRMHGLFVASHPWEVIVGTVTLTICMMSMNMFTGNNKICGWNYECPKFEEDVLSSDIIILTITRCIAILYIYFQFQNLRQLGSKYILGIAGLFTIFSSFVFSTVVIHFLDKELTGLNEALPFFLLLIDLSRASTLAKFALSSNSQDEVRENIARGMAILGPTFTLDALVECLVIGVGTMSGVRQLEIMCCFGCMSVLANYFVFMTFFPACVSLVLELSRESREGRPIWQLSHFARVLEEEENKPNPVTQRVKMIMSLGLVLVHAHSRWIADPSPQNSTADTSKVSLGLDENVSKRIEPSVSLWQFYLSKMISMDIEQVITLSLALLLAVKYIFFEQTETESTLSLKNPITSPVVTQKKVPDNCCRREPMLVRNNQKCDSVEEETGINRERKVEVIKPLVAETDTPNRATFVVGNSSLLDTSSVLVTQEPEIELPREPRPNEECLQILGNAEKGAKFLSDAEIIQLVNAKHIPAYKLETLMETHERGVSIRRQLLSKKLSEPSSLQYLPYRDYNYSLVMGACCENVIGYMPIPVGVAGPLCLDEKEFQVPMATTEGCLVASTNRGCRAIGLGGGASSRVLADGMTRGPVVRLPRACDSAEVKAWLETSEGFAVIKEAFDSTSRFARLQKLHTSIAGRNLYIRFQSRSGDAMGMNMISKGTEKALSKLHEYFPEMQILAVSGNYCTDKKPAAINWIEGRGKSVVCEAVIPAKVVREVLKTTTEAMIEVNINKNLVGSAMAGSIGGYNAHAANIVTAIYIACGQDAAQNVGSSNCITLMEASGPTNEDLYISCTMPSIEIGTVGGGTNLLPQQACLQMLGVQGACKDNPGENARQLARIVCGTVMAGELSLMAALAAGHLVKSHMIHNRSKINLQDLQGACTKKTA

Melanocortin receptor 4 = Melanocortin receptor 4 (Homo sapiens, UniProt P32245); assay type: cell membranes, Membrane; conditions: hek293; further: in other assays of this panel Not Active means under 50% inhibition at 10 µM
[4] = target: T3, Muscarinic acetylcholine receptor M4 (Homo sapiens, UniProt P08173); assay type: cell membranes, CHO-K1, Membrane; conditions: cho-k1; further: in other assays of this panel Not Active means under 50% inhibition at 10 µM
T3 sequence (P08173 whole entry): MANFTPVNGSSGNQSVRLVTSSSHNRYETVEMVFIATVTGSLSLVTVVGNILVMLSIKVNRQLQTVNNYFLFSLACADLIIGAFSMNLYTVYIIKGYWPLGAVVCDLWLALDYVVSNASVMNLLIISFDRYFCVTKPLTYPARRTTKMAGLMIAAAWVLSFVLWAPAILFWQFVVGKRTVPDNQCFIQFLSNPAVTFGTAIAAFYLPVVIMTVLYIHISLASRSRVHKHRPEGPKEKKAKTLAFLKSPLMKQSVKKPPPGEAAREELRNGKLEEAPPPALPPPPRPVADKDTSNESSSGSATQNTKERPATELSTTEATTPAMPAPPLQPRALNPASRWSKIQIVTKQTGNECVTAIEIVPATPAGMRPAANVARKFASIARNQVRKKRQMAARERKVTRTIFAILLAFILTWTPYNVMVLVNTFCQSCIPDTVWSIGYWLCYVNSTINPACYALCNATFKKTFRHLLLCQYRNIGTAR

[5] = target: Kappa-type opioid receptor (Homo sapiens, UniProt P41145); assay: DRUGMATRIX: Opiate kappa (OP2, KOP) radioligand binding (ligand: [3H] Diprenorphine); assay type: cell membranes, HEK293, Membrane; conditions: hek293; Not Active = under 50% inhibition at 10 µM
[6] = DRUGMATRIX: Potassium Channel [KATP] radioligand binding (ligand: [3H] Glyburide); assay type: cell membranes, Membrane; conditions: hit-t15; Not Active = under 50% inhibition at 10 µM
Caspase-1 = target: T4, Caspase-1 (Homo sapiens, UniProt P29466); parameters: species or system Escherichia coli
T4 sequence (P29466 whole entry): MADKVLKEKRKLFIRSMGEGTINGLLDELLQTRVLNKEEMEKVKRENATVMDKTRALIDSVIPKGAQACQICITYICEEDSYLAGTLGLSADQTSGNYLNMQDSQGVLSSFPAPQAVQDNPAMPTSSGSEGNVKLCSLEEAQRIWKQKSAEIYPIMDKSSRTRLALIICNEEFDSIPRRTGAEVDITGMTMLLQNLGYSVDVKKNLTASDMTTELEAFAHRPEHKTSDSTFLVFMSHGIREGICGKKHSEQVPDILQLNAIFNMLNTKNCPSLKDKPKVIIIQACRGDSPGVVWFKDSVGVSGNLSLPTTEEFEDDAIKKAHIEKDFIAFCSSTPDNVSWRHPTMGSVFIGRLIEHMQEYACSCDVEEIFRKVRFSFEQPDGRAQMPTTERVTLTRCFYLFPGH

[7] = target: Matrix metalloproteinase-9 (Homo sapiens, UniProt P14780); assay type: cell-based
[8] = target: Mitogen-activated protein kinase 1 (Homo sapiens, UniProt P28482); assay: DRUGMATRIX: Protein Serine/Threonine Kinase, ERK2 enzyme inhibition (substrate: Myelin Basic Protein); parameters: species or system Escherichia coli; conditions: Not Active = under 50% inhibition at 10 µM
Acetylcholinesterase = Acetylcholinesterase (Homo sapiens, UniProt P22303); assay: DRUGMATRIX: Acetylcholinesterase enzyme inhibition (substrate: acetylthiocholine); assay type: cell-based, HEK293; conditions: hek293; Not Active = under 50% inhibition at 10 µM
Sequence of Acetylcholinesterase (P22303 whole entry): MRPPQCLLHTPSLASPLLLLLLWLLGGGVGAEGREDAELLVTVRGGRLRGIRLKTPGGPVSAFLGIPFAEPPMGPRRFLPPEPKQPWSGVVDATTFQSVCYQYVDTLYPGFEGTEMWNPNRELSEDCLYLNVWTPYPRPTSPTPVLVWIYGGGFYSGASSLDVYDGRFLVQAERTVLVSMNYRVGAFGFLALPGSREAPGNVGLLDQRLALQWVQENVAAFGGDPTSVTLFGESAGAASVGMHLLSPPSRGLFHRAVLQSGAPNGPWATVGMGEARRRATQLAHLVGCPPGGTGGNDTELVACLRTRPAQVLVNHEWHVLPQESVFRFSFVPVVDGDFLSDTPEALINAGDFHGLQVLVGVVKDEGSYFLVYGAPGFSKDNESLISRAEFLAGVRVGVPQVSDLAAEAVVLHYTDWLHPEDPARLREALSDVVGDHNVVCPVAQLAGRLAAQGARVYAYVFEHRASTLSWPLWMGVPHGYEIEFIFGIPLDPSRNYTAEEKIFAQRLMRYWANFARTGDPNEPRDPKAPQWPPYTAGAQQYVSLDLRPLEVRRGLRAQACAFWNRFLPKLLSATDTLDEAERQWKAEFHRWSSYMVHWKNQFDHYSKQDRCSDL

Sequence of Mitogen-activated protein kinase 1 (P28482 whole entry): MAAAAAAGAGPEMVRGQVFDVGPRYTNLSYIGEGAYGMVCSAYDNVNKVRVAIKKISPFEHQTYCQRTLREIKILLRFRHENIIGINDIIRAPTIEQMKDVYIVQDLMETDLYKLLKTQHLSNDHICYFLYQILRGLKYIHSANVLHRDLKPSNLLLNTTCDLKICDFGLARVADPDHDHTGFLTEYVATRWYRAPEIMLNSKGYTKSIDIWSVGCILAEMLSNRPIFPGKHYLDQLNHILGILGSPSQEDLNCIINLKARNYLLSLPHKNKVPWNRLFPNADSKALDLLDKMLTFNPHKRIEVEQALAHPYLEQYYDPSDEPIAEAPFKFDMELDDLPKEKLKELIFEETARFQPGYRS
Sequence of Kappa-type opioid receptor (P41145 whole entry): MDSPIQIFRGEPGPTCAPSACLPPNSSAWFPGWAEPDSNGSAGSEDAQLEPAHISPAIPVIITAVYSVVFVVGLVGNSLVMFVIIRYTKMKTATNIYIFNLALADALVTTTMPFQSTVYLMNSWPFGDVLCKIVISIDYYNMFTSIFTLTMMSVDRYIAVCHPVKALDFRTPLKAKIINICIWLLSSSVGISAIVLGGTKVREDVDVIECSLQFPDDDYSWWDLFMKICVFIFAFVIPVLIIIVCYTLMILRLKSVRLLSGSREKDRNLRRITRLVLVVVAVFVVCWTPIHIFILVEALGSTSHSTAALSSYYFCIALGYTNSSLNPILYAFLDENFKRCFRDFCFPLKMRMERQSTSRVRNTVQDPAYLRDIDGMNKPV
Sequence of Matrix metalloproteinase-9 (P14780 whole entry): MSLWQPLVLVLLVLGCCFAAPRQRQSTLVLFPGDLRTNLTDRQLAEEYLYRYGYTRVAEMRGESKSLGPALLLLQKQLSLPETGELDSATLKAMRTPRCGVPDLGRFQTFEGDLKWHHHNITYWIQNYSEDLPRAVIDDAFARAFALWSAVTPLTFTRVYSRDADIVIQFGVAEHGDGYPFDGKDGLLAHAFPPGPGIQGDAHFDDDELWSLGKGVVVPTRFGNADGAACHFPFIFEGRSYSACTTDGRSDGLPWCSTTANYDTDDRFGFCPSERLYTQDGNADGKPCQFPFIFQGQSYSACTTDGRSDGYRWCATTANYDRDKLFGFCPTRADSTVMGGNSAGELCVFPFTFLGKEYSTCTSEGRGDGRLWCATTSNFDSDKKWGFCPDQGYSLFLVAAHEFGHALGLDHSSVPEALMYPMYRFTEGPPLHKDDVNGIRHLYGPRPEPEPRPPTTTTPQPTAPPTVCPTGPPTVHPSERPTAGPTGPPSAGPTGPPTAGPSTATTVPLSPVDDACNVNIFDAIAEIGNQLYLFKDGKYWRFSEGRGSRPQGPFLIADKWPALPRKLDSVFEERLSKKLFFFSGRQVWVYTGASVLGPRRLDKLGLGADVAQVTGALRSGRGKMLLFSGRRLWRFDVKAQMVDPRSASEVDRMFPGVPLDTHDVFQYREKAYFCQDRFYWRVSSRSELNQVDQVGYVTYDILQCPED
Sequence of Melanocortin receptor 4 (P32245 whole entry): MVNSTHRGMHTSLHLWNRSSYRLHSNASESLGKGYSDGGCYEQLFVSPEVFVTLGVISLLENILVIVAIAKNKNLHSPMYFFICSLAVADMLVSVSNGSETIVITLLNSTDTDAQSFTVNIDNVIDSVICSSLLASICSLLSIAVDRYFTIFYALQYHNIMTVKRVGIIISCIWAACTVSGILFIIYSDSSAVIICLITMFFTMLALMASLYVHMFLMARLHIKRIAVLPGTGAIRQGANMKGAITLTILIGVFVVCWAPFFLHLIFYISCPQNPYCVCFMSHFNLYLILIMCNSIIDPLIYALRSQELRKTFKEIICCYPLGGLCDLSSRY
Sequence of Prostaglandin G/H synthase 1 (P23219 whole entry): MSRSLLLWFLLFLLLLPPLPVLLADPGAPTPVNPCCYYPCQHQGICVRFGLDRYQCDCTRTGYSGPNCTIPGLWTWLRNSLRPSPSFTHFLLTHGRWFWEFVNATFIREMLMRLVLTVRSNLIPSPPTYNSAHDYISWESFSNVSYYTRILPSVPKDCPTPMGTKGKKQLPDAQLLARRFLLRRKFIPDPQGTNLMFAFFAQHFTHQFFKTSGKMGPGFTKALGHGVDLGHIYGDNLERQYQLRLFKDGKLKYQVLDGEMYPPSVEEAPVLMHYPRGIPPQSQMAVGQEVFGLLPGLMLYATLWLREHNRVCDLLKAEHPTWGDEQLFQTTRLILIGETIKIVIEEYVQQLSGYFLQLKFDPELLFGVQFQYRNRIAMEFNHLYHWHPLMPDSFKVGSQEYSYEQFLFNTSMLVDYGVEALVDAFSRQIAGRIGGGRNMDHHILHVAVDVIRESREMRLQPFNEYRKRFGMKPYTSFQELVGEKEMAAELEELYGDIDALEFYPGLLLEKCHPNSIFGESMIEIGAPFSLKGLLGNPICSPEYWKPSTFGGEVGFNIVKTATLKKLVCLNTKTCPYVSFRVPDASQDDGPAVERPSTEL

Cc1ncc([N+](=O)[O-])n1CC(C)O (stereo not given) [SECNIDAZOLE]
Not Active: IC50 (B2 bradykinin receptor) | IC50 [1] | Ki [1] | IC50 (Carbonic anhydrase 2) | IC50 [2] | IC50 [3] | IC50 (Melanocortin receptor 4) | IC50 [4] | IC50 [5] | IC50 [6] | Ki [6] | IC50 (Caspase-1) | IC50 [7] | IC50 [8] | IC50 (Acetylcholinesterase)

CN[C@@H]1[C@@H](O)[C@@H](O[C@@H]2[C@@H](O)[C@H](O[C@H]3OC(CN)=CC[C@H]3N)[C@@H](N)C[C@H]2N)OC[C@]1(C)O [SISOMICIN]
Not Active: IC50 (B2 bradykinin receptor) | IC50 [1] | Ki [1] | IC50 (Carbonic anhydrase 2) | IC50 [2] | IC50 [3] | IC50 (Melanocortin receptor 4) | IC50 [4] | IC50 [5] | IC50 [6] | Ki [6] | IC50 (Caspase-1) | IC50 [7] | IC50 [8] | IC50 (Acetylcholinesterase)

CC(=O)S[C@@H]1CC2=CC(=O)CC[C@]2(C)[C@H]2CC[C@@]3(C)[C@@H](CC[C@@]34CCC(=O)O4)[C@H]12 [SPIRONOLACTONE]
Not Active: IC50 (B2 bradykinin receptor) | IC50 [1] | Ki [1] | IC50 (Carbonic anhydrase 2) | IC50 [2] | IC50 [3] | IC50 (Melanocortin receptor 4) | IC50 [4] | IC50 [5] | IC50 [6] | Ki [6] | IC50 (Caspase-1) | IC50 [7] | IC50 [8] | IC50 (Acetylcholinesterase)

C[C@]12Cc3c[nH]nc3C[C@@H]1CC[C@@H]1[C@@H]2CC[C@@]2(C)[C@H]1CC[C@]2(C)O [STANOZOLOL]
Not Active: IC50 (B2 bradykinin receptor) | IC50 [1] | Ki [1] | IC50 (Carbonic anhydrase 2) | IC50 [2] | IC50 [3] | IC50 (Melanocortin receptor 4) | IC50 [4] | IC50 [5] | IC50 [6] | Ki [6] | IC50 (Caspase-1) | IC50 [7] | IC50 [8] | IC50 (Acetylcholinesterase)

CN(N=O)C(=O)N[C@@H](C=O)[C@@H](O)[C@H](O)[C@H](O)CO [STREPTOZOCIN]
Not Active: IC50 (B2 bradykinin receptor) | IC50 [1] | Ki [1] | IC50 (Carbonic anhydrase 2) | IC50 [2] | IC50 [3] | IC50 (Melanocortin receptor 4) | IC50 [4] | IC50 [5] | IC50 [6] | Ki [6] | IC50 (Caspase-1) | IC50 [7] | IC50 [8] | IC50 (Acetylcholinesterase)

Cc1cc(NS(=O)(=O)c2ccc(N)cc2)no1 [SULFAMETHOXAZOLE]
Not Active: IC50 (B2 bradykinin receptor) | IC50 [1] | Ki [1] | IC50 (Carbonic anhydrase 2) | IC50 [2] | IC50 [3] | IC50 (Melanocortin receptor 4) | IC50 [4] | IC50 [5] | IC50 [6] | Ki [6] | IC50 (Caspase-1) | IC50 [7] | IC50 [8] | IC50 (Acetylcholinesterase)

Nc1ccc(S(=O)(=O)Nc2ccnn2-c2ccccc2)cc1 [SULFAPHENAZOLE]
Not Active: IC50 (B2 bradykinin receptor) | IC50 [1] | Ki [1] | IC50 (Carbonic anhydrase 2) | IC50 [2] | IC50 [3] | IC50 (Melanocortin receptor 4) | IC50 [4] | IC50 [5] | IC50 [6] | Ki [6] | IC50 (Caspase-1) | IC50 [7] | IC50 [8] | IC50 (Acetylcholinesterase)
